From PMC8023571, “Multiple Applications of a Novel Biarsenical Imaging Probe in Fluorescence and PET Imaging of Melanoma” (Bioconjugate Chemistry, 2021)

Key:
[1] = tested on: Cys-Cys-Pro-Gly-Cys-Cys (CCPGCC) sequence; conditions: four As-S bonds with CCPGCC; cited from earlier work
From the text: In 1998, Griffin et al. described a system for fluorescent imaging using a biarsenical fluorescein analogue system now widely known as FlAsH.[6] This system relied on a reversible soft Lewis acid–base reaction between As(III) and S(-II) of cysteine. […] Since this sequence is uncommon in natural proteins, it requires installation via genetic alteration of the organism where the protein is expressed; in small peptides, it can be introduced during chemical synthesis. However, as ...

[2] = PET measurement of organ distribution in a nonhuman primate; type: in vivo, cynomolgus monkey; conditions: i.v.; NHP
Protocol: Second, high background affinity to any organ would severely hamper protein imaging in that organ. In order to test if 1 fulfilled these prerequisites, a […] dynamic PET measurement was performed after an intravenous injection of [^11C]CH3-1, with the upper body of a nonhuman primate subject (NHP) in the field of view. […] The high radioactivity in the liver and the low uptake in the brain likely prohibits the use of 1 for pretargeting in these organs. […] Blood samples were taken at multiple time points during the NHP PET measurements for the purpose of analyzing radiolabeled metabolites in plasma.
Figure 3 (a) Summation PET image of NHP showing the distribution of [^11C]CH3-1 from 3 to 60 min after intravenous injection. (b) Time–activity curves showing organ distribution following intravenous injection of [^11C]CH3-1.
Image- and Statistical Analysis
The acquired list mode data was reconstructed into […] (93 min scan = 4x10 s, 4x20 s, 4x60 s, 7x180 s, 11x360 s). The image reconstruction was made with a fully 3-dimensional maximum-likelihood expectation maximization algorithm (MLEM) with 20 iterations, without scatter and attenuation correction. […] The regional uptake values were expressed as standard uptake value (SUV), which normalizes for injected radioactivity and body weight. […]

In the case of O=C(O)c1ccccc1-c1c2ccc(=O)c([As]3SCCS3)c-2oc2c([As]3SCCS3)c(O)ccc12 [FlAsH], the binding constant [1] is given as “high binding constant”.

In the case of O=c1cc2oc3c([As]4SCCS4)c(O)ccc3c(-c3ccc(F)cc3)c-2cc1[As]1SCCS1 [compound 1], the “background radioactivity in lungs and heart” value [2] is reported as “intermediate background radioactivity”.
